Measured values reported in ChEMBL document CHEMBL1130153, “Inhibition of melanoma cell binding to type IV collagen by analogs of cell adhesion regulator” (J Med Chem, 1997).
Where a SMILES comes first, the peptide text is derived from it. [ ]: non-standard residue; d: D form. pY = N[C@@H](Cc1ccc(OP(=O)(O)O)cc1)C(=O)O

Columns and labels:
[1] = Inhibition of melanoma cell adhesion to type IV collagen; assay type: functional, Homo sapiens
[2] = Inhibition of melanoma cell adhesion to type IV collagen;NE=no effect; assay type: functional, Homo sapiens

IC50 [1] [µM]	Molecule	IC50 [2]
10	CC[C@H](C)[C@H](NC(=O)[C@H](CCC(=O)O)NC(=O)[C@@H](N)C(C)C)C(=O)N[C@@H](CC(C)C)C(=O)N[C@@H](Cc1ccc(OP(=O)(O)O)cc1)C(=O)O (H-VEIL[pY]-OH)	–
90	H-VEILY-OH	–
–	H-YLIEV-OH	Not Active
